Data set [1] concerns the target T1, MMP2 (Homo sapiens, UniProt P08253).
T1 sequence (P08253 110-660): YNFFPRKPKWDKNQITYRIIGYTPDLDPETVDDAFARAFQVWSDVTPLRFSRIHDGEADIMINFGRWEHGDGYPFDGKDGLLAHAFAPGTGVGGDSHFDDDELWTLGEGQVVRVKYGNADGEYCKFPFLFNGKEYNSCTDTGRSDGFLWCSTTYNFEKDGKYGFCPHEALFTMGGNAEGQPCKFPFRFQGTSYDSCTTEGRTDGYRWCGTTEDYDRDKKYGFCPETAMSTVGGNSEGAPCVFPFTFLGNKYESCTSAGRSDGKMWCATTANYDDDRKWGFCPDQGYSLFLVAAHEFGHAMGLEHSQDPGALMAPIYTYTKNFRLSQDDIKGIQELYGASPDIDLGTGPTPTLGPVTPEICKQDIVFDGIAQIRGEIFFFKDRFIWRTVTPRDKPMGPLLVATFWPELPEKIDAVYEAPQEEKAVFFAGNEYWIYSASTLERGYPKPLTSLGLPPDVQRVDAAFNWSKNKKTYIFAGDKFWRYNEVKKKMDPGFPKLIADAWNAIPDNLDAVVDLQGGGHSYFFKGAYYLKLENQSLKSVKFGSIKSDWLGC
Description: Effect on related MMP catalytic activity. It counts as biochemical. To be noted: in vitro.

Data set [2] concerns the target MMP16 (Homo sapiens, UniProt P51512). Description: Binding to related MMP family member.
The subject of data set [3] is cell migration or invasion. Nature of the data set: Effect on cell migration or invasion. It counts as cell-based. To be noted: in vitro.
The target of data set [4] is T2, MMP1 (Homo sapiens, UniProt P03956).
T2 sequence (P03956 100-469): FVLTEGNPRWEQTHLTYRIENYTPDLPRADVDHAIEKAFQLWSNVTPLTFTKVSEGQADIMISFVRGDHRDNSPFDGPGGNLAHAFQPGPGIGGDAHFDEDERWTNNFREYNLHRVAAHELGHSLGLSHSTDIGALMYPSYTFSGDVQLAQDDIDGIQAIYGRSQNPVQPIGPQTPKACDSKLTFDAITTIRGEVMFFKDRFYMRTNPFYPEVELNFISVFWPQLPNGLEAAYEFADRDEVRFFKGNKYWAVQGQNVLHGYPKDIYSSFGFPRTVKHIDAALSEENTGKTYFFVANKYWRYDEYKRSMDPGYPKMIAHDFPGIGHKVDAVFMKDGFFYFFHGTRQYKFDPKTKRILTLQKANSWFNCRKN
Description: Binding to related MMP family member.

Data set [5] concerns the target T2, MMP1. Description: Effect on related MMP catalytic activity. It counts as biochemical. To be noted: in vitro.
In data set [6] the target is MMP24 (Homo sapiens, UniProt Q9Y5R2). Description: Binding to related MMP family member.
MMP24, sequence (Q9Y5R2 156-645, species assumed): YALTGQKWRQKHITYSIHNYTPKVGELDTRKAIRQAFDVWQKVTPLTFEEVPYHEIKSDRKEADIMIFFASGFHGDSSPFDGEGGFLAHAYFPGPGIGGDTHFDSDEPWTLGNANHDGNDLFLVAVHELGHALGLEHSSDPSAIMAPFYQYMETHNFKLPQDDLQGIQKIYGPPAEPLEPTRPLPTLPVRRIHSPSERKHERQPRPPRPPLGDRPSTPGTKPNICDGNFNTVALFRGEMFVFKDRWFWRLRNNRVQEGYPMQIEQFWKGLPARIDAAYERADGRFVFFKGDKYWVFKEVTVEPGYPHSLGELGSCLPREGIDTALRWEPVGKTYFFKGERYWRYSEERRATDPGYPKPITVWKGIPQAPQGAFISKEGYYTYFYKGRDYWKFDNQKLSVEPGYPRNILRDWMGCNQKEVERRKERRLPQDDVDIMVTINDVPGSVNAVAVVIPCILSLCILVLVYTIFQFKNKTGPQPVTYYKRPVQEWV
Data set [7] concerns the target T1, MMP2. Nature of the data set: Binding to related MMP family member.
The target in data set [8] is catalytic domain of MT1 (Homo sapiens, UniProt P50281). Nature of the data set: Bicycle peptide binding to catalytic domain.
The target in data set [9] is MMP9 (Homo sapiens, UniProt P14780). Description: Effect on related MMP catalytic activity. The data set is classed as biochemical. Conditions: in vitro.
MMP9, sequence (P14780 94-707, species assumed): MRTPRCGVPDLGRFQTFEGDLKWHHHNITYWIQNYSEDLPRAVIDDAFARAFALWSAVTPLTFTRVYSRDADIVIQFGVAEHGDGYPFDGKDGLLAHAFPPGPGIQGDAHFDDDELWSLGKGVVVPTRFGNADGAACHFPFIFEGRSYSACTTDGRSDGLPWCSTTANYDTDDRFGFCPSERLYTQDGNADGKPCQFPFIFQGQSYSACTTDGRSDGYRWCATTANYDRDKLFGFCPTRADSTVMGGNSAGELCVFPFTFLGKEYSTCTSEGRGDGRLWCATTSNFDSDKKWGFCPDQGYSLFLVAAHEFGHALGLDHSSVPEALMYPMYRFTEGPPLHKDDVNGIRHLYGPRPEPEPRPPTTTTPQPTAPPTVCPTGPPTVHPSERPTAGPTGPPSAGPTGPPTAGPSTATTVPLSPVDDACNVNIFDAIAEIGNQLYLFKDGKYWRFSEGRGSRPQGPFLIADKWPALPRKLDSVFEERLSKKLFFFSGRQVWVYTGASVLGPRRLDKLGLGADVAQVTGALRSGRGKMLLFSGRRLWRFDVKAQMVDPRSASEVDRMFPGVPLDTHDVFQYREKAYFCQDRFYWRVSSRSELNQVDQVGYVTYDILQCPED
Data set [10] concerns the target T3, Pro-MMP1 (Homo sapiens, UniProt P03956).
T3 construct: MMP family members tested (MMP15, MMP16, MMP24, MMP1, Pro-MMP1, MMP2)
T3 sequence (P03956 20-469 limits assumed): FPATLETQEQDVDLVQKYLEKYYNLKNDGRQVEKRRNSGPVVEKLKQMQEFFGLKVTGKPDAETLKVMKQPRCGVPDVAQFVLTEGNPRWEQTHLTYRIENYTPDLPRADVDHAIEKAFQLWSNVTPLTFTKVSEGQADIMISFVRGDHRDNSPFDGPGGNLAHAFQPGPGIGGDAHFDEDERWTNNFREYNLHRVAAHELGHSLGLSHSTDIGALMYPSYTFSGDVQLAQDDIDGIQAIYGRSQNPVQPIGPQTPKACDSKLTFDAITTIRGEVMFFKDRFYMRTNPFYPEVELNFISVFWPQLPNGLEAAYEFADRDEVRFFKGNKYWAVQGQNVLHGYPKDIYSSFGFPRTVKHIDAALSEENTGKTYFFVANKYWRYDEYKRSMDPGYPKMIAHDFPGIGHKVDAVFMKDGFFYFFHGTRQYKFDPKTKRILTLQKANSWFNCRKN
Nature of the data set: Binding to related MMP family member.

The target of data set [11] is MT1 (Homo sapiens, UniProt P50281). Nature of the data set: Effect on catalytic activity of the protease in vitro. It counts as biochemical.
Data set [12] addresses MMP15 (Homo sapiens, UniProt P51511). Nature of the data set: Binding to related MMP family member.
In data set [13] the test system is MT1-positive tumor xenografts. Description: Tumor localization after IV injection into mice bearing MT1-positive tumor xenografts. To be noted: mouse, in vivo.

Molecules are shown by their SMILES. Starred links: 1 amine or outer side, 2 acyl side, 3 side chain; linkers in the order of their positions; H or OH if unused. Positions of bridges follow the written chain, without caps; N, C: chain ends. Non-standard residues stand in square brackets, D forms with d. Residues, ends and D or L forms follow the SMILES beside them. 1Nal = N[C@@H](Cc1cccc2ccccc12)C(=O)O; TBMB = c1c(C[*:1])cc(C[*:3])cc1C[*:2]; Tle = CC(C)(C)[C@H](N)C(=O)O; βAla = NCCC(=O)O; Sar = CNCC(=O)O

MMP15, sequence (P51511 132-669, species assumed): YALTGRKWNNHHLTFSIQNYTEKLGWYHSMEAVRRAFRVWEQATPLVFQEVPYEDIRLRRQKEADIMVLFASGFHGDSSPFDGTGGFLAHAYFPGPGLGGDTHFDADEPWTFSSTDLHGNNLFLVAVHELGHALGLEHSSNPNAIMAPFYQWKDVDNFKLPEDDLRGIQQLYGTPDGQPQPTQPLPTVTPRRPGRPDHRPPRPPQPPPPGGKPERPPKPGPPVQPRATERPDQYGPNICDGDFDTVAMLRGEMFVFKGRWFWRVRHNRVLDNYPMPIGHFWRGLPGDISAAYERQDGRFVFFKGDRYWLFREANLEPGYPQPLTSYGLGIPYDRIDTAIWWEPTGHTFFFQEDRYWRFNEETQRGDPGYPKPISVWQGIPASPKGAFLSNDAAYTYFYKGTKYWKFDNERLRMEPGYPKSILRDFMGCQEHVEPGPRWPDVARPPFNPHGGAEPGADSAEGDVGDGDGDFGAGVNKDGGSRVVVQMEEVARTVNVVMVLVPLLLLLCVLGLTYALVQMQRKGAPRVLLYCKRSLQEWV
MMP16, sequence (P51512 120-607, species assumed): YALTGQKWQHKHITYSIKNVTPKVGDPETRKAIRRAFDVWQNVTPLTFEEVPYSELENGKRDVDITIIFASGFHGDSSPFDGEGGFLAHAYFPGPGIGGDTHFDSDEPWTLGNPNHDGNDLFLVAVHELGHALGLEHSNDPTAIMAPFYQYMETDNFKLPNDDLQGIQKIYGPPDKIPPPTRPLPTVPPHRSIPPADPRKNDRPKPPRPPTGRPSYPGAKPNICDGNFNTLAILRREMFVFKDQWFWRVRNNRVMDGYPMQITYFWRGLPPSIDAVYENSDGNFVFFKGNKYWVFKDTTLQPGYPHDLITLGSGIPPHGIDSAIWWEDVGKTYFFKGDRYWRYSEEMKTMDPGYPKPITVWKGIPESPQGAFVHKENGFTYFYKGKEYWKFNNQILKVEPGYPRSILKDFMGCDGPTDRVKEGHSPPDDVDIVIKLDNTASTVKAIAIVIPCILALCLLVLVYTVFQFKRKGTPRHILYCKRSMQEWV

Consider `C[C@H](NC(=O)CN(C)C(=O)CN(C)C(=O)CN(C)C(=O)CN(C)C(=O)CN(C)C(=O)CN(C)C(=O)CN(C)C(=O)CN(C)C(=O)CN(C)C(=O)CN(C)C(=O)CCN)C(=O)N[C@H]1CSCc2cc3cc(c2)CSC[C@H](NC(=O)[C@@H](C)NC(=O)[C@H](Cc2cccc4ccccc24)NC(=O)[C@H](CCC(=O)O)NC(=O)[C@H](CC(N)=O)NC(=O)[C@@H](C)NC1=O)C(=O)N[C@@H](CCC(=O)O)C(=O)N[C@@H](CC(=O)O)C(=O)N[C@@H](Cc1ccccc1)C(=O)N[C@@H](Cc1ccc(O)cc1)C(=O)N[C@@H](CC(=O)O)C(=O)N[C@@H](C(C)(C)C)C(=O)N[C@H](C(N)=O)CSC3` [N241] (H-[βAla][Sar][Sar][Sar][Sar][Sar][Sar][Sar][Sar][Sar][Sar]AC[dA]NE[1Nal][dA]CEDFYD[Tle]C-NH2; linker 13-19-26 via TBMB), for which the “impact on MMP2 catalytic activity” value in [1] is on record as “no direct impact”. Also, the “binding toward MMP16” value in [2] is recorded as “no binding”. Moreover, the “impact on cell migration or invasion” value in data set [3] was “no direct impact”. Also, in [4], the “binding toward MMP1” value is reported as “no binding”. Besides, in [5], the “impact on MMP1 catalytic activity” value is “no direct impact”. In data set [6], the “binding toward MMP24” value is given as “no binding”. The “binding toward MMP2” value in data set [7] is on record as “no binding”. Besides, the “binding to the catalytic domain” value in data set [8] was “no binding”. The “impact on MMP9 catalytic activity” value in [9] is “no direct impact”. Further, the “binding toward Pro-MMP1” value in data set [10] is reported as “no binding”. Further, the “impact on the catalytic activity of the protease (MT1)” value in data set [11] is “no direct impact”. Further, the “binding toward MMP15” value in [12] is given as “no binding”.

In the case of `C[C@H](NC(=O)CN(C)C(=O)CN(C)C(=O)CN(C)C(=O)CN(C)C(=O)CN(C)C(=O)CN(C)C(=O)CN(C)C(=O)CN(C)C(=O)CN(C)C(=O)CN(C)C(=O)CCN)C(=O)N[C@H]1CSCc2cc3cc(c2)CSC[C@H](NC(=O)[C@@H](C)NC(=O)[C@H](Cc2cccc4ccccc24)NC(=O)[C@H](CCC(=O)O)NC(=O)[C@H](CC(N)=O)NC(=O)[C@@H](C)NC1=O)C(=O)N[C@@H](CCC(=O)O)C(=O)N[C@@H](CC(=O)O)C(=O)N[C@@H](Cc1ccccc1)C(=O)N[C@@H](Cc1ccc(O)cc1)C(=O)N[C@@H](CC(=O)O)C(=O)N[C@@H](C(C)(C)C)C(=O)N[C@H](C(N)=O)CSC3` [^177Lu-loaded N241, metal not drawn] (H-[βAla][Sar][Sar][Sar][Sar][Sar][Sar][Sar][Sar][Sar][Sar]AC[dA]NE[1Nal][dA]CEDFYD[Tle]C-NH2; linker 13-19-26 via TBMB; N-terminus and C-terminus assumed), in [13], the tumor localization entry is listed as “rapid tumor localization”.

Source of the values: patent US20220387611A1, “METHODS FOR TREATING CANCER” (BicycleRD Limited, priority 2019, published 2022).
